Measurements from patent US20090062273A1, “3-H-pyrazolopyridines and salts thereof, pharmaceutical compositions comprising same, methods of preparing same and uses of same” (priority 2006, published 2009).

Legend:
Tie2 [1] = target: T1, Tie2 (Homo sapiens, UniProt Q02763); experiment: Tie2 ELISA assay (cellular Tie2 autophosphorylation); type: cell-based; design: expressed in transfected cells; host or cells: CHO (CHO Tie2/DHFR); settings: CHO cells stably transfected with Tie2, stimulated by angiopoietin-2; Tie2 autophosphorylation by sandwich-ELISA; read-out: Tie 2 activity (assay 1)
Method: Cellular activity of compounds of the present invention as inhibitors of Tie2 kinase activity was measured employing a Tie2 ELISA assay as described in the following paragraphs. Herein CHO cell-cultures, which are stably transfected by known techniques with Tie2 using DHFR deficiency as selection marker, are stimulated by angiopoietin-2. The specific autophosphorylation of Tie2 receptors is quantified with a sandwich-ELISA using anti-Tie2 antibodies for catch and anti-phosphotyrosine antibodies coupled to HRP for detection.
• 96 well tissue culture plate, sterile, Greiner • 96 well FluoroNunc plate MaxiSorp Surface C, Nunc • 96 well plate polypropylene for compound dilution in DMSO • CHO Tie2/DHFR (transfected cells) • PBS−; PBS++, DMSO • MEM alpha Medium with Glutamax-I without Ribonucleosides and Deoxyribonucleosides (Gibco #32561-029) • with 10% FCS after dialysis! and 1% PenStrep • Lysis buffer: 1 Tablet “Complete” protease inhibitor • 1 cap Vanadate (1 mL>40 mg/mL; working solution 2 mM) • ad 50 mL with Duschl-Puffer • pH 7.6 • Anti-Tie2-antibody 1:425 in Coating Buffer pH 9.6 • Stock solution: 1.275 mg/mL>working.: 3 μg/mL • PBST: 2 bottles PBS (10×)+10 ml Tween, fill up with VE-water • RotiBlock 1:10 in VE-water • Anti-Phosphotyrosine HRP-Conjugated 1:10000 in 3% TopBlock • 3% TopBlock in PBST • BM Chemiluminescence ELISA Substrate (POD) • solution B 1:100 solution A • SF9 cell culture medium • Ang2-Fc in SF9 cell culture medium
• Dispense 5×10^4 cells/well/98 μL in 96 well tissue culture plate • Incubate at 37° C./5% CO2 • After 24 h add compounds according to desired concentrations • Add also to control and stimulated values without compounds 2 μL DMSO • And mix for a few min at room temperature • Add 100 μL Ang2-Fc to all wells except control, which receives insect medium • Incubate 20 min at 37° C. • Wash 3× with PBS++ • Add 100 μl Lysis buffer/well and shake a couple of min at room temperature • Store lysates at […] before utilizing for the ELISA
• Coat 96 well FluoroNunc Plate MaxiSorp Surface C with anti-Tie2 mAb 1:425 in Coating buffer pH 9.6; 100 μL/well overnight at 4° C. • Wash 2× with PBST • Block plates with 250 μL/well RotiBlock 1:10 in VE-water • Incubate for 2 h at room temperature or overnight at 4° C. shaking • Wash 2× in PBST • Add thawed lysates to wells and incubate overnight shaking at 4° C. • Wash 2× with PBST • Add 100 μL/well anti-Phosphotyrosine HRP-Conjugated 1:10000 in 3% TopBlock (3% TopBlock in PBST) and incubate overnight under shaking • Wash 6× with PBST • Add 100 μL/well BM Chemiluminescence ELISA Substrate (POD) solutions 1 und 2 (1:100) • Determine luminescence with the LumiCount. Assay 2: Tie-2-Kinase HTRF-Assay without Kinase Preactivation
Target sequence in this assay (Q02763 23-1124, species assumed): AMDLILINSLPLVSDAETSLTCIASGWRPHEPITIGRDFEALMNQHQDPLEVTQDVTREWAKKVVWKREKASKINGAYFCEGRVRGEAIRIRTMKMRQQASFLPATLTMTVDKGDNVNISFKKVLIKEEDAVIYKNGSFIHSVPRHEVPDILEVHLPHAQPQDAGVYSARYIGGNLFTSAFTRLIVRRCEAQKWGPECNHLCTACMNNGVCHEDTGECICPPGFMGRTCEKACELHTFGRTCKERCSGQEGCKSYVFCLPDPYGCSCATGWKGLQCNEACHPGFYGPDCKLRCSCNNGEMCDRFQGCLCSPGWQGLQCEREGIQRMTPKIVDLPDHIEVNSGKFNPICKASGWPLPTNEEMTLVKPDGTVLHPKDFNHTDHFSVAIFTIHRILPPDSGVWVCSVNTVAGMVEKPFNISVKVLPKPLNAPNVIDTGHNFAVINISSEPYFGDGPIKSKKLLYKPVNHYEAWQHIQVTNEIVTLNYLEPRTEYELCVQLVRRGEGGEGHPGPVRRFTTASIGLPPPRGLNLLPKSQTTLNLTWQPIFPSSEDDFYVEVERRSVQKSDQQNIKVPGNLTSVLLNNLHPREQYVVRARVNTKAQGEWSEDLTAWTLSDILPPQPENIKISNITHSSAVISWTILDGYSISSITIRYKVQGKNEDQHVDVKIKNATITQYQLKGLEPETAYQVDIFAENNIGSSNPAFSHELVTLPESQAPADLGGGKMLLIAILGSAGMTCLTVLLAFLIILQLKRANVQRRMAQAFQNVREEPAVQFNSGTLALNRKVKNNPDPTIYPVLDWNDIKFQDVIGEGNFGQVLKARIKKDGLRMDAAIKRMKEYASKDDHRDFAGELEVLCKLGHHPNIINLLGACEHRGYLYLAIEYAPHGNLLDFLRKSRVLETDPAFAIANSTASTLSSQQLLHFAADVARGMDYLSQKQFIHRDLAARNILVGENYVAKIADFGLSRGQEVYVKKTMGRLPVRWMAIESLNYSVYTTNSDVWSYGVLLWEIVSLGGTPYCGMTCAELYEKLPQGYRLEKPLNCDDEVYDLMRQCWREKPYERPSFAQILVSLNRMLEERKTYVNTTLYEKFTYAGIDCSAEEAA

Tie2 [2] = target: T1, Tie2; experiment: Tie-2-Kinase HTRF-Assay without kinase preactivation; type: biochemical; design: fusion protein of GST and the intracellular domains of Tie-2; GST; made in house; host or cells: insect cells (Hi-5); settings: GST-Tie-2 intracellular domains, 10 μM ATP
From the text: Tie2-inhibitory activity of compounds of the present invention was quantified employing two Tie2 HTRF assay as described in the following paragraphs.
A recombinant fusion protein of GST and the intracellular domains of Tie-2, expressed in insect cells (Hi-5) and purified by Glutathion-Sepharose affinity chromatography was used as kinase. Alternatively, commercially available GST-Tie2-fusion protein (Upstate Biotechnology, Dundee, Scotland) can be used As substrate for the kinase reaction the biotinylated peptide biotin-Ahx-EPKDDAYPLYSDFG (C-terminus in amid form) was used which can be purchased e.g. from the company Biosynthan GmbH (Berlin-Buch, Germany). Detection of phosphorylated product is achieved specifically by a trimeric detection complex consisting of the phosphorylated substrate, streptavidin-XLent (SA-XLent) which binds to biotin, and Europium Cryptate-labeled anti-phosphotyrosine antibody PT66 which binds to phosphorylated tyrosine.
Tie-2 (3.5 ng/measurement point) was incubated for 60 min at 22° C. in the presence of 10 μM adenosine-tri-phosphate (ATP) and 1 μM substrate peptide (biotin-Ahx-EPKDDAYPLYSDFG-NH2) with different concentrations of test compounds (0 μM and concentrations in the range 0.001-20 μM) in 5 μl assay buffer [50 mM Hepes/NaOH pH 7, 10 mM MgCl2, 0.5 mM MnCl2, 1.0 mM dithiothreitol, 0.01% NP40, protease inhibitor mixture (“Complete w/o EDTA” from Roche, 1 tablet per 2.5 ml), 1% (v/v) dimethylsulfoxide]. The reaction was stopped by the addition of 5 μl of an aqueous buffer (25 mM Hepes/NaOH pH 7.5, 0.28% (w/v) bovine serum albumin) containing EDTA (90 mM) and the HTRF (Homogeneous Time Resolved Fluorescence) detection reagents streptavidine-XLent (0.2 μM, from Cis Biointernational, Marcoule, France) and PT66-Eu-Chelate (0.3 ng/μl; a europium-chelate labelled anti-phospho-tyrosine antibody from Perkin Elmer).
The resulting mixture was incubated 1 h at 22° C. to allow the binding of the biotinylated phosphorylated peptide to the streptavidine-XLent and the PT66-Eu-Chelate. Subsequently the amount of phosphorylated substrate peptide was evaluated by measurement of the resonance energy transfer from the PT66-Eu-Chelate to the streptavidine-XLent. Therefore, the fluorescence emissions at 620 nm and 665 nm after excitation at 350 nm was measured in a HTRF reader, e.g. a Rubystar (BMG Labtechnologies, Offenburg, Germany) or a Viewlux (Perkin-Elmer). The ratio of the emissions at 665 nm and at […] was taken as the measure for the amount of phosphorylated substrate peptide. The data were normalised (enzyme reaction without inhibitor=0% inhibition, all other assay components but no enzyme=100% inhibition) and IC50 values were calculated by a 4 parameter fit using an inhouse software.
Target sequence in this assay (Q02763 770-1124 limits assumed, species assumed): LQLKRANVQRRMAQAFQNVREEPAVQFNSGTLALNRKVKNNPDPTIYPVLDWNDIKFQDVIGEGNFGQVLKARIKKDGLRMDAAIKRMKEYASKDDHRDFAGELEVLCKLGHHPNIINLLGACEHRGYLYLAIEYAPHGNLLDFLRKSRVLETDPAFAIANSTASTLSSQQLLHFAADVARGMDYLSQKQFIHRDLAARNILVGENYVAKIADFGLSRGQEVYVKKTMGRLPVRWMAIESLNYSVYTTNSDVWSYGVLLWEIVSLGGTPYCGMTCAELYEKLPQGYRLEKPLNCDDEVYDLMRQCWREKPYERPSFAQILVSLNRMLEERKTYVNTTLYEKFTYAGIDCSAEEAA

| SMILES | IC50 (Tie2 [1]) [nM] | IC50 (Tie2 [2]) [nM] |
| --- | --- | --- |
| Cn1ncc2c(-c3ccc(NC(=O)Nc4cc(C(F)(F)F)ccc4F)cc3)cncc21 [Example 1.2, 1-(2-Fluoro-5-trifluoromethyl-phenyl)-3-[4-(1-methyl-1H-pyrazolo[3,4-c]pyridin-4-yl)-phenyl]-urea] | < 501 | < 501 |
| Cc1ccc(F)c(NC(=O)Nc2ccc(-c3cncc4c3cnn4C)cc2)c1 [Example 1.3, 1-(2-Fluoro-5-methyl-phenyl)-3-[4-(1-methyl-1H-pyrazolo[3,4-c]pyridin-4-yl)-phenyl]-urea] | < 501 | < 501 |
| Cn1ncc2c(-c3ccc(NC(=O)Nc4cccc(C(F)(F)F)c4)cc3)cncc21 [Example 1.4, 1-[4-(1-Methyl-1H-pyrazolo[3,4-c]pyridin-4-yl)-phenyl]-3-(3-trifluoromethyl-phenyl)-urea] | < 501 | < 501 |
| CCc1cccc(NC(=O)Nc2ccc(-c3cncc4c3cnn4C)cc2)c1 [Example 1.5, 1-(3-Ethyl-phenyl)-3-[4-(1-methyl-1H-pyrazolo[3,4-c]pyridin-4-yl)-phenyl]-urea] | < 501 | < 501 |
| Cn1ncc2c(-c3ccc(NC(=O)Nc4cc(C(F)(F)F)ccn4)cc3)cncc21 [Example 1.9, 1-[4-(1-Methyl-1H-pyrazolo[3,4-c]pyridin-4-yl)-phenyl]-3-(4-trifluoromethyl-pyridin-2-yl)-urea] | < 501 | < 501 |
| Cn1ncc2c(-c3ccc(NC(=O)Nc4cc(C(F)(F)F)ccc4Cl)cc3)cncc21 [Example 1.13, 1-(2-Chloro-5-trifluoromethyl-phenyl)-3-[4-(1-methyl-1H-pyrazolo[3,4-c]pyridin-4-yl)-phenyl]-urea] | < 501 | < 501 |

Other lines, results leading:

| IC50 (Tie2 [1]) [nM] | IC50 (Tie2 [2]) [nM] | SMILES |
| --- | --- | --- |
| < 501 | < 501 | Cn1ncc2c(-c3ccc(NC(=O)Nc4cccc(C(F)(F)F)c4)c(F)c3)cncc21 [Example 3.1, 1-[2-Fluoro-4-(1-methyl-1H-pyrazolo[3,4-c]pyridin-4-yl)-phenyl]-3-(3-trifluoromethyl-phenyl)-urea] |
| < 501 | < 501 | Cc1cc(-c2cncc3c2cnn3C)ccc1NC(=O)Nc1cccc(C(F)(F)F)c1 [Example 4.1, 1-[2-Methyl-4-(1-methyl-1H-pyrazolo[3,4-c]pyridin-4-yl)-phenyl]-3-(3-trifluoromethyl-phenyl)-urea] |
| 501 to 1000 | 501 to 1000 | CN(C(=O)Nc1cccc(C(F)(F)F)c1)c1ccc(-c2cncc3c2cnn3C)cc1 [Example 6.1, 1-Methyl-1-[4-(1-methyl-1H-pyrazolo[3,4-c]pyridin-4-yl)-phenyl]-3-(3-trifluoromethyl-phenyl)-urea] |
| < 501 | < 501 | Cn1ncc2c(-c3ccc(NC(=O)Nc4cc(C(F)(F)F)ccc4F)c(F)c3)cncc21 [Example 6.3, 1-[2-Fluoro-4-(1-methyl-1H-pyrazolo[3,4-c]pyridin-4-yl)-phenyl]-3-(2-fluoro-5-trifluoromethyl-phenyl)-urea] |
| < 501 | < 501 | CN1CCN(Cc2ccc(NC(=O)Nc3ccc(-c4cncc5c4cnn5C)cc3)cc2C(F)(F)F)CC1 [Example 6.4, 1-[4-(4-Methyl-piperazin-1-ylmethyl)-3-trifluoromethyl-phenyl]-3-[4-(1-methyl-1H-pyrazolo[3,4-c]pyridin-4-yl)-phenyl]-urea] |
| < 501 | < 501 | O=C(Nc1ccc(-c2cncc3c2cnn3CCO)cc1F)Nc1cc(C(F)(F)F)ccc1F [Example 8.1, 1-{2-Fluoro-4-[1-(2-hydroxy-ethyl)-1H-pyrazolo[3,4-c]pyridin-4-yl]-phenyl}-3-(2-fluoro-5-trifluoromethyl-phenyl)-urea] |
| < 501 | < 501 | O=C(Nc1ccc(-c2cncc3c2cnn3CCO)cc1)Nc1cc(C(F)(F)F)ccc1F [Example 8.2, 1-(2-Fluoro-5-trifluoromethyl-phenyl)-3-{4-[1-(2-hydroxy-ethyl)-1H-pyrazolo[3,4-c]pyridin-4-yl]-phenyl}-urea] |
| < 501 | < 501 | O=C(Nc1cccc(C(F)(F)F)c1)Nc1ccc(-c2cncc3c2cnn3CCO)cc1F [Example 8.5, 1-{2-Fluoro-4-[1-(2-hydroxy-ethyl)-1H-pyrazolo[3,4-c]pyridin-4-yl]-phenyl}-3-(3-trifluoromethyl-phenyl)-urea] |
| < 501 | < 501 | CN1CCN(Cc2ccc(NC(=O)Nc3ccc(-c4cncc5c4cnn5CCO)cc3)cc2C(F)(F)F)CC1 [Example 8.6, 1-{4-[1-(2-Hydroxy-ethyl)-1H-pyrazolo[3,4-c]pyridin-4-yl]-phenyl}-3-[4-(4-methyl-piperazin-1-ylmethyl)-3-trifluoromethyl-phenyl]-urea] |
| < 501 | < 501 | CCn1ncc2c(-c3ccc(NC(=O)Nc4cc(C(F)(F)F)ccc4F)cc3)cncc21 [Example 10.5, 1-[4-(1-Ethyl-1H-pyrazolo[3,4-c]pyridin-4-yl)-phenyl]3-(2-fluoro-5-trifluoromethyl-phenyl)-urea] |
| < 501 | < 501 | CCn1ncc2c(-c3ccc(NC(=O)Nc4cccc(C(F)(F)F)c4)c(F)c3)cncc21 [Example 11.1, 1-[4-(1-Ethyl-1H-pyrazolo[3,4-c]pyridin-4-yl)-2-fluoro-phenyl]-3-(3-trifluoromethyl-phenyl)-urea] |
| < 501 | < 501 | CCn1ncc2c(-c3ccc(NC(=O)Nc4cc(C(F)(F)F)ccc4F)c(F)c3)cncc21 [Example 11.2, 1-[4-(1-Ethyl-1H-pyrazolo[3,4-c]pyridin-4-yl)-2-fluoro-phenyl]-3-(2-fluoro-5-trifluoromethyl-phenyl)-urea] |
| < 501 | < 501 | CCn1ncc2c(-c3ccc(NC(=O)Nc4cc(C)ccc4F)c(F)c3)cncc21 [Example 11.3, 1-[4-(1-Ethyl-1H-pyrazolo[3,4-c]pyridin-4-yl)-2-fluoro-phenyl]-3-(2-fluoro-5-methyl-phenyl)-urea] |
